# Data taken from patent publication EP2072037A1, “Hair dyeing compositions” (Farmen International Cosmetics Distribution S.p.A, priority 2007, dated 2009).
# Test system: HaCaT cells
# Assay: MTT cytotoxicity assay on human keratinocytes (skin irritation potential)
# Assay type: cell-based
# Conditions: two hours
# Description: To evaluate the skin irritation potential of compositions C and D (containing paraphenyldiamine) illustrated in example 1, an in vitro test was used, consisting of a cytotoxicity assay performed on a line of human keratinocytes (transformed human keratinocytes, HaCaT cells) that maintain full epidermal differentiation capability.
# In this case, the goal of the test was to determine the effects of compositions C and D illustrated in Example 1 on the proliferation of keratinocytes through the cell vitality test, indirectly measured by MTT staining (Mossnam T, […], J. Immunol. Methods, 65:55-63).
# The specimen comprising composition C or D was previously mixed with oxidant cream in the proportion 1:1.5 and left to act for 15 minutes. […]
# The cells were treated for two hours to simulate the conditions of use of the dye. At the end of the two hours, the cells were subjected to the MTT test.
# From this value, the irritant potential of composition C and composition D can be estimated. Negative control comprised no treatment, whereas the surfactant sodium lauryl sulphate (SLS), whose cytotoxicity is well known, was used as positive control. Each experiment was done in triplicate, on cells plated 24 hours previously.
smiles,measurement,setting,value
"CCCCCCCCCCCCOS(=O)(=O)[O-].[Na+] [SLS, sodium lauryl sulphate]",Cell vitality % (versus negative control),Dose 0.03 mg/mL,101.5%
same,Cell vitality % (versus negative control),Dose 0.06 mg/mL,109.7%
same,Cell vitality % (versus negative control),Dose 0.12 mg/mL,74.0%
same,Cell vitality % (versus negative control),Dose 0.25 mg/mL,3.4%
same,Cell vitality % (versus negative control),Dose 0.5 mg/mL,3.1%
same,IC50,"Homo sapiens, 2 h, concentration reducing cell vitality by 50% versus untreated cells, theoretical value from regression curve, MTT",148 µg/mL
